Test results reported in patent publication US9744212B2, “Galectin-3C combination therapy for human cancer” (Texas Tech University System, priority 2011, dated 2017).

Assays:
VEGF = experiment: ELISA of VEGF in U266 cell-conditioned medium; format: cell-based, human; details: 48-hour culture with 10 μg/mL Gal-3C, 5 nM Bor or both
Method: (§1) ELISA of VEGF and bFGF Levels. The levels of VEGF and bFGF were measured by direct ELISA as follows. Flat-bottom 96-well polycarbonate plates were coated at 4° C. with 50 μL/well cell culture supernatants diluted 1:25 in carbonate coating buffer (0.1 M NaHCO3, […]) at 4° C. overnight. Standard curves were obtained with purified recombinant human VEGF and bFGF (both from R&D Systems) serially diluted in coating buffer (10-fold serial dilutions from 1,000 to 0 ng/mL). After removing diluted supernatants or standards, and blocking with PBS supplemented with 1% W/V BSA for 1 hour at room temperature, plates were incubated for 1 hour at room temperature with mouse anti-human VEGF or rabbit anti-human bFGF primary antibodies (2 μg/mL in PBS, 50 μL/well Abeam, Mass., USA). Then, plates were washed twice with PBS with 0.025% V/V Tween-20 (300 μL/well) and incubated at room temperature with anti-mouse or anti-rabbit HRP-labeled secondary antibodies (0.2 μg/mL in PBS, 50 μL/well Abeam, Mass., USA) for 1 hour. The plates were washed thrice with PBS containing 0.025% V/V Tween-20 (300 μL/well), the TMB colorimetric substrate (Thermo Fisher Scientific, Waltham, Mass., USA) was added, and after 5 minutes the absorbance was measured (0.1 s) at 450 nm on a Victor 2 multimodal microplate reader (PerkinElmer, Billerica, Mass., USA). All samples were run in triplicates. […]

bFGF = experiment: ELISA of bFGF in U266 cell-conditioned medium; format: cell-based, human; details: 48-hour culture with 10 μg/mL Gal-3C, 5 nM Bor or both
Method: as §1

HUVEC [1] = experiment: Vascular endothelial cell viability assay; format: cell-based, human
Method: FIGS. 4A and 4B are graphs of the data from the vascular endothelial cell viability assay. […] The graphs show mean values and error bars represent 95% C.I. **=ANOVA Tukey's post test p<O.Ol. n.s.=not significant. […] Viability was measured as described for the U266 cells. […] Results obtained from the HUVEC viability studies that were run in triplicate are depicted in FIGS. 4A-B, and are presented as a percentage of control (untreated) cells.
EXAMPLE 3 illustrates Gal-3C inhibits proliferation of MM cells. Cell Proliferation (Viability) Assays. Cell proliferation was assessed with a ViaLight Plus Cell Proliferation and Cytotoxicity BioAssay Kit (Lonza, Walkersville, Md., USA) according to the directions of the manufacturer. In brief, myeloma cells were seeded (8,000 per well) in 50 μL of RPMI-1640 with 10% heat-inactivated FBS (growth medium) in 96-well plates. HUVEC cells were seeded (10,000/well) in 50 μl EGM-2 medium in 96-well plates. Gal-3C (2× concentration) in 50 μL of growth medium was added to triplicate wells and the plate kept at the CO2 incubator at 37° C. for 48 hour. For the ViaLight assay, 50 μL of lysis buffer was added to each well, the plate was incubated for 10 minutes, after which 50 μL of cell lysate from each well was transferred to a solid white Lumitrac-200 plate and 50 μL of reconstituted AMR Plus was added. Luminescence was measured with a 1-s integrated setting in a Berthold luminometer after 2 minutes. With Alamar Blue, 10 μL of reagent was added per well and the plate kept in the CO2 incubator for 4 hours. Fluorescence intensity was measured at 590-nm on a Polarstar Galaxy (BMG Labtech, Cary, N.C.) microplate reader. The blank (growth media with 10 μl Alamar Blue) was subtracted from the raw fluorescence to obtain adjusted fluorescence readings. Triplicate data points were analyzed and the data shown are representative of 3 or more studies.

[2] = test system: NF-kB (serine 529 phosphorylated p65 subunit); experiment: Quantification of NF-kappaB activation by flow cytometry in U266 cells; format: cell-based, human; details: 48 hours
Method: Quantification of NF-kappaB Activation by Flow Cytometry. For measurement of NF-kB activation, 200×10^3 cells were fixed with 2% PFA in ice-cold PBS for 30 minutes. After removal of PFA, cells were permeabilized with 0.3% saponin in PBS on ice for 15 minutes, then washed and resuspended in 50 μL PBS supplemented with 1% BSA. PE-labeled anti-phosphorylated serine 529 p65 antibody (BD Biosciences, San Jose, Calif., USA) or isotype control (final dilution, 1:20) and allowed to incubate on ice in the dark for 30 minutes. Before flow-cytometric analysis cells were washed 3 times in 1-mL cold PBS with 1% BSA.
FIG. 8A is a dot-plot of NF-kB activation in U266 cells. After 48 hours in the presence of indicated treatments, the levels of active NF-KB (serine 529 phosphorylated p65 subunit) were evaluated in U266 cells by flow cytometry.

HUVEC [3] = experiment: HUVEC tubule formation assay on Matrigel with U266 conditioned media; format: cell-based, human; details: 20% V/V conditioned medium of U266 treated 48 h with 10 μg/mL Gal-3C, 5 nM Bor or both; 16-hour incubation
Method: HUVEC Tubule Formation Assay. A tubule formation assay was performed in vitro as described (86) to measure angiogenesis. Briefly, growth factor-reduced Matrigel (Becton Dickinson) was allowed to polymerize in the presence of 30 ng/mL recombinant basic fibroblastic growth factor (bFGF; R&D Systems) for 1 hour at 37° C.
FIG. 5 is an image of the results from the In vitro tubule formation assay having 6 regions. Serum-starved HUVEC were allowed to form tubules on a […]™ surface in the presence of VEGF (positive control), EMB-2 medium alone (negative control), or EBM-2 supplemented with 20% V/V U266 conditioned media (c.m.). […] To evaluate the effect of different treatments on the ability of U266 cells to induce angiogenesis, a […]™-based tubule formation assay was performed in the presence of U266 conditioned media as described for the chemotaxis assay. Serum-starved (5×103) HUVEC were seeded on the […]™ surface in 200-μL EBM-2 medium supplemented with 20% V/V conditioned medium. Pictures were taken after 16-hour incubation in 5% CO2 at 37° C. The assay was run in triplicate and representative images are depicted in FIG. 5. As a positive control, EBM-2 medium supplemented with 20 ng/mL VEGF was used.

AKT/IKK pathway = experiment: Western blot of proteins in the NF-κB AKT/IKK pathway; format: cell-based; details: U266 and primary human MM cells; Gal-3C 10 μg/ml
Excerpt: EXAMPLE 4 indicates Gal-3C impairs NF-kB activation induced by Bonin U266 cells. Recently, it has been shown that the mechanism of action of Boris more complex than originally thought and can be differ depending on the cell type. […] This effect potentially reduces the therapeutic effect of Bonin MM, because NF-kB activation in plasma cells is associated with anti-apoptotic pathways (91). […] Comparison of NFkB expression by Western blot. […] Equal amounts of lysates of human primary MM and U266 cells and media were fractionated by SDS-PAGE and transferred to nitrocellulose membranes. Primary antibodies were visualized with HRP-coupled goat anti-rabbit or anti-mouse IgGs using an ATK/IKK kit (Cell Signaling Technology, Danvers, Mass.).
Upon IKK-mediated phosphorylation, IKBα dissociates from the NF-kB complex (p50 and p65 proteins). Free NF-kB is then phosphorylated on serine 529 of the p65 subunit and enters the nucleus where it regulates gene transcription.

Structure (SMILES): CC(C)C[C@H](NC(=O)[C@H](Cc1ccccc1)NC(=O)c1cnccn1)B(O)O [Bor, bortezomib, reference compound]
- VEGF levels in U266 conditioned medium (VEGF): significantly reduced
- bFGF levels in U266 conditioned medium (bFGF): significantly reduced
- effect on HUVEC viability (HUVEC [1]; Bor at the concentration used in HUVEC assays, combined with different concentrations of Gal-3C): did not display any effect
- effect on HUVEC viability (HUVEC [1]; at the concentration used in the chemotaxis and angiogenesis assays (Gal-3C 2 μg/ml, Bor 1 nM), 48 h): had an effect only at a concentration 5-fold higher
- effect on HUVEC viability (HUVEC [1]; at the highest concentrations, 48 h): dramatic inhibition
- NF-kB activation (phosphorylated active form) [2]: activated NF-kB incrementally
- potential of U266 cells for induction of angiogenesis (tubule formation) (HUVEC [3]): almost completely impaired
- P-p65, P-Akt, P-IKKβ and P-IKKα (activation of the AKT/IKK pathway) (AKT/IKK pathway): increased
